system: androgen receptor (AR) in LNCaP and/or VCaP cells; test: Androgen Receptor ELISA assay (AR degradation); assay type: cell-based; conditions: LNCaP and/or VCaP cells; 5 hours incubation; media with R1881; read-out: DC50 Code* (degradation of AR ELISA)
Procedure, shortened: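 VCaP cells grown ≥3 days, then treated 5 h with compound in media containing 1 nM R1881 (10× stock). Cells lysed and AR quantified by sandwich ELISA (mouse AR detection Ab, HRP anti-mouse, TMB). DC50 and Dmax derived from AR degradation.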

DC50 | SMILES
< 1 nM | COc1cc(O[C@H]2CC[C@H](NC(=O)c3cnc(N4CC(CN(C(C)C)[C@H]5C[C@H](Oc6ccc7c(c6)C(=O)N(C6CCC(=O)NC6=O)C7=O)C5)C4)nc3)CC2)ccc1C#N (stereo partly shown) [Compound 57, N-((1r,4r)-4-(4-cyano-3-methoxyphenoxy)cyclohexyl)-2-(3-((((1r,3r)-3-((2-(2,6-dioxopiperidin-3-yl)-1,3-dioxoisoindolin-5-yl)oxy)cyclobutyl) (isopropyl)amino)methyl)azetidin-1-yl)pyrimidine-5-carboxamide]
< 1 nM | COc1cc(O[C@H]2C[C@H](N(CC3CCN(c4cnc(C(=O)N[C@H]5CC[C@H](Oc6ccc(C#N)c(C)c6)CC5)cn4)CC3)C(C)C)C2)cc2c1C(=O)N(C1CCC(=O)NC1=O)C2=O (stereo partly shown) [Compound 78, N-((1r,4r)-4-(4-cyano-3-methylphenoxy)cyclohexyl)-5-(4-((((1r,3r)-3-((2-(2,6-dioxopiperidin-3-yl)-7-methoxy-1,3-dioxoisoindolin-5-yl)oxy)cyclobutyl) (isopropyl)amino)methyl)piperidin-1-yl)pyrazine-2-carboxamide]

same assay, conditions: degradation of AR ELISA in LNCaP and/or VCaP cells; Table 2C; read-out: DC50 Code*

SMILES | DC50
Cc1cc(O[C@H]2C(C)(C)[C@H](NC(=O)c3cnc(N4CCC5(CC4)CN([C@H]4C[C@H](Oc6ccc7c(c6)C(=O)N(C6CCC(=O)NC6=O)C7=O)C4)CCO5)cn3)C2(C)C)cc(C)c1C#N (mixture of isomers) [compound 236, rac-N-((1r,3r)-3-(4-cyano-3,5-dimethylphenoxy)-2,2,4,4-tetramethylcyclobutyl)-5-(4-((1r,3r)-3-((2-(2,6-dioxopiperidin-3-yl)-1,3-dioxoisoindolin-5-yl)oxy)cyclobutyl)-1-oxa-4,9-diazaspiro[5.5]undecan-9-yl)pyrazine-2-carboxamide] | < 1 nM
COc1cc(O[C@H]2C(C)(C)[C@H](NC(=O)c3c(C)nc(N4CCC(CN(C(C)C)[C@H]5C[C@H](Oc6ccc7c(c6)C(=O)N(C6CCC(=O)NC6=O)C7=O)C5)CC4)nc3C)C2(C)C)ccc1C#N (mixture of isomers) [compound 211, rac-N-((1r,3r)-3-(4-cyano-3-methoxyphenoxy)-2,2,4,4-tetramethylcyclobutyl)-2-(4-((((1r,3r)-3-((2-(2,6-dioxopiperidin-3-yl)-1,3-dioxoisoindolin-5-yl)oxy)cyclobutyl) (isopropyl)amino)methyl)piperidin-1-yl)-4,6-dimethylpyrimidine-5-carboxamide] | < 1 nM
Cc1cc(O[C@H]2C(C)(C)[C@H](NC(=O)c3cnc(N4CCC(CN(CC(F)F)[C@H]5C[C@H](Oc6ccc7c(c6)C(=O)N(C6CCC(=O)NC6=O)C7)C5)CC4)nc3)C2(C)C)cc(C)c1C#N (stereo partly shown) [compound 109, N-((1r,3r)-3-(4-cyano-3,5-dimethylphenoxy)-2,2,4,4-tetramethylcyclobutyl)-2-(4-(((2,2-difluoroethyl)((1r,3r)-3-((2-(2,6-dioxopiperidin-3-yl)-3-oxoisoindolin-5-yl)oxy)cyclobutyl)amino)methyl)piperidin-1-yl)pyrimidine-5-carboxamide] | < 1 nM
CC(C)N(CC1CCN(c2cnc(C(=O)N[C@H]3C(C)(C)[C@H](Oc4ccc(C#N)c(Cl)c4)C3(C)C)cn2)CC1)[C@H]1C[C@H](Oc2cccc3c2CN(C2CCC(=O)NC2=O)C3=O)C1 (mixture of isomers) [compound 208, rac-N-((1r,3r)-3-(3-chloro-4-cyanophenoxy)-2,2,4,4-tetramethylcyclobutyl)-5-(4-((((1r,3r)-3-((2-(2,6-dioxopiperidin-3-yl)-1-oxoisoindolin-4-yl)oxy)cyclobutyl) (isopropyl)amino)methyl)piperidin-1-yl)pyrazine-2-carboxamide] | < 1 nM
Cc1cc(O[C@H]2C(C)(C)[C@H](NC(=O)c3ccc(N4CC(CN(C(C)C)[C@H]5C[C@H](Oc6ccc7c(c6)C(=O)N(C6CCC(=O)NC6=O)C7=O)C5)C4)cc3)C2(C)C)cc(C)c1C#N (stereo partly shown) [compound 187, N-((1r,3r)-3-(4-cyano-3,5-dimethylphenoxy)-2,2,4,4-tetramethylcyclobutyl)-4-(3-((((1r,3r)-3-((2-(2,6-dioxopiperidin-3-yl)-1,3-dioxoisoindolin-5-yl)oxy)cyclobutyl) (isopropyl)amino)methyl)azetidin-1-yl)benzamide] | < 1 nM
Cc1cc(O[C@H]2C(C)(C)[C@H](NC(=O)c3ccc(N4CCC(CN5CCC[C@@H]5COc5ccc6c(c5)C(=O)N(C5CCC(=O)NC5=O)C6=O)CC4)cc3)C2(C)C)cc(C)c1C#N (stereo partly drawn) [compound 193, N-((1r,3R)-3-(4-cyano-3,5-dimethylphenoxy)-2,2,4,4-tetramethylcyclobutyl)-4-(4-(((2R)-2-(((2-(2,6-dioxopiperidin-3-yl)-1,3-dioxoisoindolin-5-yl)oxy)methyl)pyrrolidin-1-yl)methyl)piperidin-1-yl)benzamide] | < 1 nM
Cc1cc(O[C@H]2C(C)(C)[C@H](NC(=O)c3cnc(N4CCC(CN(C)[C@H]5C[C@H](Oc6ccc7c(c6)C(=O)N(C6CCC(=O)NC6=O)C7=O)C5)CC4)nc3)C2(C)C)cc(C)c1C#N (stereo partly shown) [compound 86, N-((1r,3r)-3-(4-cyano-3,5-dimethylphenoxy)-2,2,4,4-tetramethylcyclobutyl)-2-(4-((((1r,3r)-3-((2-(2,6-dioxopiperidin-3-yl)-1,3-dioxoisoindolin-5-yl)oxy)cyclobutyl) (methyl)amino)methyl)piperidin-1-yl)pyrimidine-5-carboxamide] | < 1 nM
Cc1cc(O[C@H]2C(C)(C)[C@H](NC(=O)c3cnc(N4CC(CN(C(C)C)[C@H]5C[C@H](Oc6ccc7c(c6)C(=O)N(C6CCC(=O)NC6=O)C7=O)C5)C4)cn3)C2(C)C)cc(C)c1C#N (stereo partly shown) [compound 131, N-((1r,3r)-3-(4-cyano-3,5-dimethylphenoxy)-2,2,4,4-tetramethylcyclobutyl)-5-(3-((((1r,3r)-3-((2-(2,6-dioxopiperidin-3-yl)-1,3-dioxoisoindolin-5-yl)oxy)cyclobutyl) (isopropyl)amino)methyl)azetidin-1-yl)pyrazine-2-carboxamide] | 1 to 10 nM
COCCN(CC1CCN(c2cnc(C(=O)N[C@H]3C(C)(C)[C@H](Oc4cc(C)c(C#N)c(C)c4)C3(C)C)cn2)CC1)[C@H]1C[C@H](Oc2ccc3c(c2)C(=O)N(C2CCC(=O)NC2=O)C3)C1 (mixture of isomers) [compound 223, rac-N-((1r,3r)-3-(4-cyano-3,5-dimethylphenoxy)-2,2,4,4-tetramethylcyclobutyl)-5-(4-((((1r,3r)-3-((2-(2,6-dioxopiperidin-3-yl)-3-oxoisoindolin-5-yl)oxy)cyclobutyl)(2-methoxyethyl)amino)methyl)piperidin-1-yl)pyrazine-2-carboxamide] | < 1 nM
CC1(C)[C@H](NC(=O)c2ccc(N3CCC(CN4CCN(c5ccc6c(c5)C(=O)N([C@@]5(C#N)CCC(=O)NC5=O)C6)CC4)CC3)cc2)C(C)(C)[C@H]1Oc1ccc(C#N)c(Cl)c1 [compound 234, N-((1r,3r)-3-(3-chloro-4-cyanophenoxy)-2,2,4,4-tetramethylcyclobutyl)-4-(4-((4-(2-((R)-3-cyano-2,6-dioxopiperidin-3-yl)-3-oxoisoindolin-5-yl)piperazin-1-yl)methyl)piperidin-1-yl)benzamide] | < 1 nM

Second part, the compound after the results:

DC50 | SMILES
> 100 nM | CC(C)N(CC1CCN(c2cnc(C(=O)N[C@H]3C(C)(C)[C@H](Oc4ccc(C#N)c(Cl)c4)C3(C)C)cn2)CC1)[C@H]1C[C@H](Oc2ccc3c(c2)C(=O)N(C2CCC(=O)NC2=O)C32CC2)C1 (stereo partly shown) [compound 141, N-((1r,3r)-3-(3-chloro-4-cyanophenoxy)-2,2,4,4-tetramethylcyclobutyl)-5-(4-((((1r,3r)-3-((2′-(2,6-dioxopiperidin-3-yl)-3′-oxospiro[cyclopropane-1,1′-isoindolin]-5′-yl)oxy)cyclobutyl) (isopropyl)amino)methyl)piperidin-1-yl)pyrazine-2-carboxamide]
< 1 nM | COc1cc(O[C@H]2C[C@H](N(CC3CCN(c4cnc(C(=O)N[C@H]5C(C)(C)[C@H](Oc6ccc(C#N)c(Cl)c6)C5(C)C)cn4)CC3)C(C)C)C2)cc2c1C(=O)N(C1CCC(=O)NC1=O)C2=O (stereo partly shown) [compound 124, N-((1r,3r)-3-(3-chloro-4-cyanophenoxy)-2,2,4,4-tetramethylcyclobutyl)-5-(4-((((1r,3r)-3-((2-(2,6-dioxopiperidin-3-yl)-7-methoxy-1,3-dioxoisoindolin-5-yl)oxy)cyclobutyl) (isopropyl)amino)methyl)piperidin-1-yl)pyrazine-2-carboxamide]
< 1 nM | CCN(CC1CCN(c2cnc(C(=O)N[C@H]3C(C)(C)[C@H](Oc4ccc(C#N)c(OC)c4)C3(C)C)cn2)CC1)[C@H]1C[C@H](Oc2ccc3c(c2)C(=O)N(C2CCC(=O)NC2=O)C3=O)C1 (stereo partly shown) [compound 194, N-((1r,3r)-3-(4-cyano-3-methoxyphenoxy)-2,2,4,4-tetramethylcyclobutyl)-5-(4-((((1r,3r)-3-((2-(2,6-dioxopiperidin-3-yl)-1,3-dioxoisoindolin-5-yl)oxy)cyclobutyl)(ethyl)amino)methyl)piperidin-1-yl)pyrazine-2-carboxamide]

same assay, conditions: degradation of AR ELISA in LNCaP and/or VCaP cells; read-out: DC50 Code*

SMILES | DC50
Cc1cc(O[C@H]2C(C)(C)[C@H](NC(=O)c3cnc(N4CCC(CN(C(C)C)[C@H]5C[C@H](Oc6ccc7c(c6)C(=O)N(C6CCC(=O)N(COP(=O)(O)OCOC(=O)OC(C)C)C6=O)C7=O)C5)CC4)cn3)C2(C)C)cc(C)c1C#N (mixture of isomers) [compound 247, rac-((((3-(5-((1r,3r)-3-(((1-(5-(((1r,3r)-3-(4-cyano-3,5-dimethylphenoxy)-2,2,4,4-tetramethylcyclobutyl)carbamoyl)pyrazin-2-yl)piperidin-4-yl)methyl)(isopropyl)amino)cyclobutoxy)-1,3-dioxoisoindolin-2-yl)-2,6-dioxopiperidin-1-yl)methoxy)(hydroxy)phosphoryl)oxy)methyl isopropyl carbonate] | > 100 nM
